Values joined by “and” are separate entries in the source; they are usually repeats but may differ in a detail not shown here. Equal entries are not always repeated.
These compounds were tested on ATF4 translation (SH-SY5Y-ATF4-NanoLuc cells) (assay: ATF4 cell based assay (ATF4 5'-UTR NanoLuc luciferase reporter, Thapsigargin induced stress)). Conditions: Thapsigargin 200-300 nM for 14-18 hours, average of two or more experimental runs, read-out: average ATF4 pathway inhibitory activity (IC50).
Description: The ATF4 reporter assay measures the effect of Thapsigargin induced cellular stress on ATF4 expression. For this reporter assay, a stable cell line was created by transfecting SH-SY5Y cells with a plasmid containing the NanoLuc® luciferase gene fused to the 5′-UTR of ATF4, under the control of the CMV promoter. The ATF4 5′-UTR contains two open reading frames which mediate the cellular stress-dependent translation of the reporter gene. Clones stably expressing the reporter construct were isolated and selected based on the luminescence response to thapsigargin and inhibition of this signal by test compounds. Briefly, SH-SY5Y-ATF4-NanoLuc cells were challenged with Thapsigargin for 14-18 hours to determine the stress effect with or without test compounds.
Cells were propagated in growth media consisting of 90% DMEM F12 (InVitrogen #11320-033), 10% Fetal Bovine Serum (Gibco #10438-026), 5 mM Glutamax (Gibco #35050-061), 5 mM Hepes, (Gibco #15630-080), and 0.5 mg/ml Geneticin (Gibco #10131-027). Cells were prepared for the assay by removing all media from cells, washing the plated cells with phosphate buffered saline, and detached by adding a solution comprised of 10% Tryple express solution (InVitrogen12604-021) and 90% enzyme-free cell dissociation buffer HANKS base (Gibco 13150-016). The trypsin was deactivated by adding assay media comprised of 90% phenol-red free DMEM F12 (InVitrogen, 11039), 10% Fetal Bovine Serum (Gibco #10438-026), (5 mM Glutamax (Gibco #35050-061), 5 mM Hepes, (Gibco #15630-080), and 0.5 mg/ml Geneticin (Gibco #10131-027). Suspended cells were spun down at 300 g for 5 min, the supernatant was removed and the cell pellet was suspended in warm media (30-37° C.) comprised as above but without 10% Fetal Bovine Serum to a concentration of 1e6 cells/mi.
Assay plates were prepared by adding 250 nL of compound stock solution in 100% DMSO to each well, followed by dispensing 20 microliters/well cell suspension to deliver 15-20 k cell/well. Cells were incubated for 1 hour at 37° C. Then, 5 μL of 1.5 μM or 1 μM of Thapsigargin (final concentration: 200-300 nM) was added to each well of cells. Assay plates containing cells were incubated for 14-18 hours at 37° C.
The measurement of luciferase produced by the ATF4 constructs was measured as follows. Aliquots of the Nano-Glo reagent (Nano-Glo® Luciferase Assay Substrate, Promega, N113, Nano-Glo® Luciferase Assay Buffer, Promega, N112 (parts of Nano-Glo® Luciferase Assay System, N1150) were brought to room temperature, the substrate and buffer were mixed according to manufacturer's instructions. The cell plates were equilibrated to room temperature. 25 microliters/well of the mixed Nano-Glo reagent were dispensed into assay wells and pulse spun to settle contents and the plate was sealed with film. The plates were incubated at room temperature for 1 hour before detecting luminescence on an EnVision® plate reader.

Q: Which IC50 does the source give for O=C(COc1ccc(Cl)cc1)NCC1CN(C(=O)COc2ccc(Cl)cc2)C1 [Example 1, 2-(4-chlorophenoxy)-N-((1-(2-(4-chlorophenoxy)acetyl)azetidin-3-yl)methyl)acetamide] here?
A: 0.1 to 1 µM

Q: O=C(COc1ccc(Cl)cc1)NCC1CN(C(=O)CCc2ccc(Cl)cc2)C1 [Example 2, 2-(4-chlorophenoxy)-N-((1-(3-(4-chlorophenyl)propanoyl)azetidin-3-yl)methyl)acetamide] was tested. Which IC50 did it give?
A: 0.1 to 1 µM

Q: How did the IC50 turn out when O=C(COc1ccc(Cl)cc1)NCC1CN(C(=O)C2CC2c2ccc(Cl)cc2)C1 (centres unmarked) [Example 3, 2-(4-chlorophenoxy)-N-((1-(2-(4-chlorophenyl)cyclopropane-1-carbonyl)azetidin-3-yl)methyl)acetamide] was run?
A: 0.1 to 1 µM

Q: Which IC50 does the source give for O=C(COc1ccc(Cl)cc1)NCCC1CN(C(=O)COc2ccc(Cl)cc2)C1 [Example 4, 2-(4-chlorophenoxy)-N-(2-(1-(2-(4-chlorophenoxy)acetyl)azetidin-3-yl)ethyl)acetamide] here?
A: 0.1 to 1 µM

Q: How did the IC50 turn out when CC(C)(C)OCC(=O)N1CC(CNC(=O)COc2ccc(Cl)cc2)C1 [Example 5, N-((1-(2-(tert-butoxy)acetyl)azetidin-3-yl)methyl)-2-(4-chlorophenoxy)acetamide] was run?
A: 1 to 8 µM

Q: Which IC50 does the source give for O=C(COc1ccc(Cl)cc1)NCC1CN(CCCOc2ccc(Cl)cc2)C1 [Example 6, 2-(4-chlorophenoxy)-N-((1-(3-(4-chlorophenoxy)propyl)azetidin-3-yl)methyl)acetamide] here?
A: < 0.1 µM

Q: For O=C(COc1ccc(Cl)cc1)NCC1(F)CN(CCOc2ccc(Cl)cc2)C1 [Example 7, 2-(4-chlorophenoxy)-N-((1-(2-(4-chlorophenoxy)ethyl)-3-fluoroazetidin-3-yl)methyl)acetamide], which IC50 is on record?
A: 1 to 8 µM

Q: Which IC50 does the source give for O=C(COc1ccc(Cl)cc1)NCC1(F)CN(CCCOc2ccc(Cl)cc2)C1 [Example 8, 2-(4-chlorophenoxy)-N-((1-(3-(4-chlorophenoxy)propyl)-3-fluoroazetidin-3-yl)methyl)acetamide] here?
A: 0.1 to 1 µM

Q: How did the IC50 turn out when O=C(COc1ccc(Cl)cc1)NC1CN(CCCOc2ccc(Cl)cc2)C1 [Example 9, 2-(4-chlorophenoxy)-N-(1-(3-(4-chlorophenoxy)propyl)azetidin-3-yl)acetamide] was run?
A: 0.1 to 1 µM and 0.106 µM

Q: How did the IC50 turn out when O=C(COc1ccc(Cl)cc1)NCC1(O)CN(CCCOc2ccc(Cl)cc2)C1 [Example 10, 2-(4-chlorophenoxy)-N-((1-(3-(4-chlorophenoxy)propyl)-3-hydroxyazetidin-3-yl)methyl)acetamide] was run?
A: < 0.1 µM

Q: With O=C(COc1ccc(Cl)cc1)NCC1CN(CCOc2ccc(Cl)cc2)C1 [Example 11, 2-(4-chlorophenoxy)-N-((1-(2-(4-chlorophenoxy)ethyl)azetidin-3-yl)methyl)acetamide] as the compound, how does the IC50 read?
A: < 0.1 µM and 0.078 µM

Q: For O=C(COc1ccc(Cl)cc1)NCCC1CN(CCOc2ccc(Cl)cc2)C1 [Example 12, 2-(4-chlorophenoxy)-N-(2-(1-(2-(4-chlorophenoxy)ethyl)azetidin-3-yl)ethyl)acetamide], which IC50 is on record?
A: < 0.1 µM

Q: Which IC50 does the source give for O=C(NCC1CN(CCCOc2ccc(Cl)cc2)C1)C1CCc2cc(Cl)ccc2O1 (centres unmarked) [Example 13, 6-chloro-N-((1-(3-(4-chlorophenoxy)propyl)azetidin-3-yl)methyl)chromane-2-carboxamide] here?
A: < 0.1 µM

Q: O=C(COc1ccc(Cl)cc1)NCC1CN(CCCc2ccc(Cl)cc2)C1 [Example 14, 2-(4-chlorophenoxy)-N-((1-(3-(4-chlorophenyl)propyl)azetidin-3-yl)methyl)acetamide] was tested. Which IC50 did it give?
A: < 0.1 µM

Q: Which IC50 does the source give for O=C(COc1ccc(Cl)cc1)NCCC1CN(CCCc2ccc(Cl)cc2)C1 [Example 15, 2-(4-chlorophenoxy)-N-(2-(1-(3-(4-chlorophenyl)propyl)azetidin-3-yl)ethyl)acetamide] here?
A: 0.1 to 1 µM

Q: O=C(COc1ccc(Cl)cc1)NCC1CN(C(=O)OCCc2ccc(Cl)cc2)C1 [Example 16, 4-chlorophenethyl 3-((2-(4-chlorophenoxy)acetamido)methyl)azetidine-1-carboxylate] was tested. Which IC50 did it give?
A: 0.1 to 1 µM

Q: How did the IC50 turn out when O=C(COc1ccc(Cl)cc1)NCC1CN(C(=O)OCCOc2ccc(Cl)cc2)C1 [Example 17, 2-(4-chlorophenoxy)ethyl 3-((2-(4-chlorophenoxy)acetamido)methyl)azetidine-1-carboxylate] was run?
A: < 0.1 µM

Q: With O=C(COc1ccc(Cl)cc1)NCC1CN(C(=O)OCc2ccc(Cl)cc2)C1 [Example 18, 4-chlorobenzyl 3-((2-(4-chlorophenoxy)acetamido)methyl)azetidine-1-carboxylate] as the compound, how does the IC50 read?
A: < 0.1 µM

Q: With CC(C)(C)COC(=O)N1CC(CNC(=O)COc2ccc(Cl)cc2)C1 [Example 19, neopentyl 3-((2-(4-chlorophenoxy)acetamido)methyl)azetidine-1-carboxylate] as the compound, how does the IC50 read?
A: 1 to 8 µM and 1.34 µM

Q: Which IC50 does the source give for O=C(COc1ccc(Cl)cc1)NCC1CN(C(=O)NCc2ccc(Cl)cc2)C1 [Example 20, N-(4-chlorobenzyl)-3-((2-(4-chlorophenoxy)acetamido)methyl)azetidine-1-carboxamide] here?
A: 1 to 8 µM

Q: With O=C(COc1ccc(Cl)cc1)NCC1CN(C(CCOc2ccc(Cl)cc2)C(=O)O)C1 (centres unmarked) [Example 21, 4-(4-chlorophenoxy)-2-(3-((2-(4-chlorophenoxy)acetamido)methyl)azetidin-1-yl) butanoic acid] as the compound, how does the IC50 read?
A: 0.1 to 1 µM

Q: For COc1ccc(N2CC(CNC(=O)COc3ccc(Cl)cc3)C2)cc1 [Example 22, 2-(4-chlorophenoxy)-N-((1-(4-methoxyphenyl)azetidin-3-yl)methyl)acetamide], which IC50 is on record?
A: 1 to 8 µM

Q: How did the IC50 turn out when O=C(COc1ccc(Cl)cc1)NCC1CN(c2cccnc2)C1 [Example 23, 2-(4-chlorophenoxy)-N-((1-(pyridin-3-yl)azetidin-3-yl)methyl)acetamide] was run?
A: 1 to 8 µM

Reference: US20200140383A1, “2-(4-CHLOROPHENOXY)-N-((1 -(2-(4-CHLOROPHENOXY)ETHYNAZETIDIN-3-YL)METHYL)ACETAMIDE DERIVATIVES AND RELATED COMPOUNDS AS ATF4 INHIBITORS FOR TREATING CANCER AND OTHER DISEASES” (GlaxoSmithKline Intellectual Property Development Limited, priority 2017, published 2020)
